Results: patent US20230087844A1, “USE OF N2-QUINCLINE OR ISOQUINOLINE SUBSTITUTED PURINE DERIVATIVES IN CANCER TREATMENT” (SHANGHAI HUAYU BIOTECHNOLOGY CO., LTD., priority 2020, published 2023)
Marks after values point to notes of the source that are not given here.

Tests used:
[1] = biological target: FLT3 (Homo sapiens, UniProt P36888); experiment: Inhibition of FLT3 phosphorylation; format: biochemical
From the text: FLT3 is a class III receptor tyrosine kinase and plays an important role in hematopoiesis and lymphocyte development. […] Wang et al found over 60% of 82 leukemia cell lines were FLT3 positive (Wang Y et al., (2006) Journal of Experimental Hematology 14(3): 446-449). FLT3-internal tandem duplication (ITD) is the most commonly seen mutation in AML patients, with about 17-34% of AML patients carrying such a mutation (Jia H et al., (2018) Medical Laboratory Science and Clinics 19(5): 39). […] Thus, the compounds of the disclosure with high inhibitory effect on FLT3 function may be good candidates for leukemia treatment.

[2] = system: A549; experiment: MTT tumor cell proliferation, A549; format: cell-based; conditions: Homo sapiens; A549, Lung cancer, 72 hour
Description: (§1) as an exemplary compound of formula (I), was tested for its inhibitory effect on tumor cell proliferation in a MTT assay.
(§2) Briefly, cells at the log phase were collected, suspended in the cell culture medium at 4*10^4/ml density, and plated in 96-well plates, 90 μl per well. The plates were kept in a 5% CO2 and 37° C. incubator for 2 hours, and then added with 100 μg/ml, 10 μg/ml, 1 μg/ml, 0.1 μg/ml, 0.01 μg/ml or 0.001 μg/ml Compound A, 4 replicates for each cell at each compound concentration. DMSO was used in the positive control group, and another negative group was also set. After 72 hour incubation in the same incubator, 20 μl 5 mg/ml MTT reagent was added to each well. After another 4 hour incubation, each well was added with 100 μl SDS and further incubated for 12 hours. Absorbance at 570 nm was read in a reader, and IC50 was calculated.

[3] = system: NCI-H460; experiment: MTT tumor cell proliferation, NCI-H460; format: cell-based; conditions: Homo sapiens; NCI-H460, Lung cancer, 72 hour
Description: as §1, §2

[4] = system: SGC-7901; experiment: MTT tumor cell proliferation, SGC-7901; format: cell-based; conditions: Homo sapiens; SGC-7901, Gastric cancer, 72 hour
Description: as §1, §2

[5] = system: Ls-174t; experiment: MTT tumor cell proliferation, Ls-174t; format: cell-based; conditions: Homo sapiens, LS174T, Colon cancer, 72 hour
Description: as §1, §2

[6] = system: HT-29; experiment: MTT tumor cell proliferation, HT-29; format: cell-based; conditions: Homo sapiens; HT-29, Colon cancer, 72 hour
Description: as §1, §2

[7] = system: MDA-MB-231; experiment: MTT tumor cell proliferation, MDA-MB-231; format: cell-based; conditions: Homo sapiens; MDA-MB-231, Breast cancer, 72 hour
Description: as §1, §2

[8] = system: leukemia cell lines; experiment: MTT tumor cell proliferation, leukemia cell lines (summary); format: cell-based; conditions: summary of Table 2
Description: as §1, §2

[9] = system: S180 murine sarcoma cancer cells; experiment: S180 sarcoma growth in mice; conditions: for TGI: tumor weight, Day 8
Description: On Day 8, the mice were weighed and sacrificed, and the tumors were collected and weighed.
Tumor growth inhibition (TGI) was calculated by the following formula. Tumor growth inhibition=(average tumor weight in vehicle group-average tumor weight in administration group)/average tumor weight in vehicle group×100%

[10] = system: MV-4-11 cells; experiment: MV-4-11 AML xenograft in mice, combination with daunorubicin (Example 8); format: in vivo, BALB-cA nude mice; conditions: 30 mg/kg P.O., D0-10
Description: Mice body weights and tumor sizes were measured twice a week. The tumor volume, T/C and TGI (Tumor growth inhibition=(average tumor volume in vehicle group-average tumor volume in administration group)/average tumor volume in vehicle group ×100%) were calculated. Mice were sacrificed on Day 21. Female BALB-cA nude mice, 6-7 weeks old, purchased from Shanghai Ling-chang Biotech Co., Ltd, were subcutaneously inoculated with MV-4-11 cells (from ATCC). […] Mice body weights and tumor sizes were measured twice a week. The tumor volume, T/C and tumor volume based TGI were calculated as described above. Mice were sacrificed on Day 11.

[11] = system: H526; experiment: Tumor cell death by MTT, H526; format: cell-based, human; conditions: 20 nM
Description: The in vitro inhibitory effect of Compound A alone or in combination with a PARP inhibitor on tumor cell growth was tested using human small cell lung cancer (SCLC) cell lines, including H69 (ATCC® HTB-119™), H526 (ATCC® CRL-5811™) and H446 (TCHu196, National Collection of Authenticated Cell Cultures).
Briefly, the cells were seeded into a 96-well dish with RPMI-1640 (10-040-CV, Coming cellgro) containing 10% fetal bovine serum (10270-106, GIBCO), 1% penicillin and 1% streptomycin (BaSalMedia, S110JV), at an initial density of 3×10^3 cells per well ([…]), and cultured at a 37° C., 5% CO2 humidified incubator for 24 hours. Then, the culture media were added with Compound A (final concentration at 20 nM), olaparib (APEXBIO, A4154, a PARP inhibitor, final concentration at 10 μM), Compound A + olaparib (final concentrations at20 nM and 10 μM), or PBS (vehicle), respectively, and the cells were cultured for 48 hours. Then, cell viability was determined by MTT. The test was done in triplicate.
Cell death rate was calculated by the following formula.
Cell death rate=[1−(ODtest-ODvehicle)]×100%
Cell death rates were analyzed using student's t-test, and group differences were deemed statistically significant when the p-value was lower than 0.05. Zheng-Jun Jin's Q value was calculated using the formula Q=EA+B/(EA+EB-EA×EB) to assess the combined effect of Compound A and the PARP inhibitor, wherein EA+B, EA, and EB referred to the cell death rates caused by the combined treatment, Compound A treatment and PARP inhibitor treatment, respectively. A Q value higher than 1.15 meant a synergistic […] effect.
Another PARP inhibitor, rucaparib (APEXBIO, A4156), was tested alone or with Compound A for inhibitory effect on tumor cell growth, following the protocol of Example 9.

[12] = biological target: PI3K α isoform (Homo sapiens, UniProt P42336); conditions: one of the other three isoforms
Chain of PI3K α isoform (P42336 whole entry, canonical isoform): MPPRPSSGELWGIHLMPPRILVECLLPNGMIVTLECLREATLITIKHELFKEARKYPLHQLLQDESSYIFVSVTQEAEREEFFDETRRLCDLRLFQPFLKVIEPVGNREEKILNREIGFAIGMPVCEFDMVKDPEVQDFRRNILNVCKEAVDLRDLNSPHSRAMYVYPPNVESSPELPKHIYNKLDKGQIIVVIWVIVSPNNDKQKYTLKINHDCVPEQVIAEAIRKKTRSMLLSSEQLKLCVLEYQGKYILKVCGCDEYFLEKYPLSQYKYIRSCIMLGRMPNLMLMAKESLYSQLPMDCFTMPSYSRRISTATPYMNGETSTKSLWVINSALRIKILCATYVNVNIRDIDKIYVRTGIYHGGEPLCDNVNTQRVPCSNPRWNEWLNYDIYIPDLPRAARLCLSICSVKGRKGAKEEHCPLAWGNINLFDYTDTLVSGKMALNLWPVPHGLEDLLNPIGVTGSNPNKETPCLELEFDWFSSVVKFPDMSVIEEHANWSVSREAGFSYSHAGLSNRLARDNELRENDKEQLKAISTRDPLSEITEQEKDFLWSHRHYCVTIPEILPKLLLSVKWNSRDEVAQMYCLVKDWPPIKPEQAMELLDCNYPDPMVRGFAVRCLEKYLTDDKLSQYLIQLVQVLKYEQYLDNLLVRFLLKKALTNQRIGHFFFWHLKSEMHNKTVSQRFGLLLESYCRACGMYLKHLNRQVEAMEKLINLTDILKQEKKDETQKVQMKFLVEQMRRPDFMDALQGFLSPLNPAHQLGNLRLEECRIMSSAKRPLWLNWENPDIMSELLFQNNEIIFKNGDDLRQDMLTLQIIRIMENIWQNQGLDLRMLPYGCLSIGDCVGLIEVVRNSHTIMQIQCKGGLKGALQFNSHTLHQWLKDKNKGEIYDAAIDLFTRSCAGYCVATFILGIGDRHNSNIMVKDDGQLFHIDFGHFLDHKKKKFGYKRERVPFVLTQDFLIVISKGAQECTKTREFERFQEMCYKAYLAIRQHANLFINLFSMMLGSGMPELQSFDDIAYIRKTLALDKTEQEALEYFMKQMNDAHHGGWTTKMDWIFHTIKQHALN
Chain of PI3K α isoform (P27986 whole entry partner, canonical isoform): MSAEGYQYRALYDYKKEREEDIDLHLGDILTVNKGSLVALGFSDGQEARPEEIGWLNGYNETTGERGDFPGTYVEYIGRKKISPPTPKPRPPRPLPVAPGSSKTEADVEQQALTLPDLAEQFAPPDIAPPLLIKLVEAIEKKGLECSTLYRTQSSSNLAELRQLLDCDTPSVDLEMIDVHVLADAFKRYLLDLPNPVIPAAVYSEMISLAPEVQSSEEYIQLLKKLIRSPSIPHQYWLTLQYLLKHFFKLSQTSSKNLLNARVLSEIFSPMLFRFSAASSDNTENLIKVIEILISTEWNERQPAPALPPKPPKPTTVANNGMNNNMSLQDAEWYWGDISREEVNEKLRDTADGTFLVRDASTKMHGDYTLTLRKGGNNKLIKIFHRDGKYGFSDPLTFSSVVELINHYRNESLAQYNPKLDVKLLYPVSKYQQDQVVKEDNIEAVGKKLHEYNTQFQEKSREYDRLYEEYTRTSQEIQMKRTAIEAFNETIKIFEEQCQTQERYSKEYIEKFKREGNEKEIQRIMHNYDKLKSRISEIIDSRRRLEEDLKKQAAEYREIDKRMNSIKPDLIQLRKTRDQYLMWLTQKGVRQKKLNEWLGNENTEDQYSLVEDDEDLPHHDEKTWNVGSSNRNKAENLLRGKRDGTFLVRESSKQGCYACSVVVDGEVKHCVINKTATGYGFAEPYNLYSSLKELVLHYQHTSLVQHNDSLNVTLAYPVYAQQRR

[13] = biological target: PI3K β isoform (Homo sapiens, UniProt P42338); conditions: one of the other three isoforms
Chain of PI3K β isoform (P42338 whole entry, canonical isoform): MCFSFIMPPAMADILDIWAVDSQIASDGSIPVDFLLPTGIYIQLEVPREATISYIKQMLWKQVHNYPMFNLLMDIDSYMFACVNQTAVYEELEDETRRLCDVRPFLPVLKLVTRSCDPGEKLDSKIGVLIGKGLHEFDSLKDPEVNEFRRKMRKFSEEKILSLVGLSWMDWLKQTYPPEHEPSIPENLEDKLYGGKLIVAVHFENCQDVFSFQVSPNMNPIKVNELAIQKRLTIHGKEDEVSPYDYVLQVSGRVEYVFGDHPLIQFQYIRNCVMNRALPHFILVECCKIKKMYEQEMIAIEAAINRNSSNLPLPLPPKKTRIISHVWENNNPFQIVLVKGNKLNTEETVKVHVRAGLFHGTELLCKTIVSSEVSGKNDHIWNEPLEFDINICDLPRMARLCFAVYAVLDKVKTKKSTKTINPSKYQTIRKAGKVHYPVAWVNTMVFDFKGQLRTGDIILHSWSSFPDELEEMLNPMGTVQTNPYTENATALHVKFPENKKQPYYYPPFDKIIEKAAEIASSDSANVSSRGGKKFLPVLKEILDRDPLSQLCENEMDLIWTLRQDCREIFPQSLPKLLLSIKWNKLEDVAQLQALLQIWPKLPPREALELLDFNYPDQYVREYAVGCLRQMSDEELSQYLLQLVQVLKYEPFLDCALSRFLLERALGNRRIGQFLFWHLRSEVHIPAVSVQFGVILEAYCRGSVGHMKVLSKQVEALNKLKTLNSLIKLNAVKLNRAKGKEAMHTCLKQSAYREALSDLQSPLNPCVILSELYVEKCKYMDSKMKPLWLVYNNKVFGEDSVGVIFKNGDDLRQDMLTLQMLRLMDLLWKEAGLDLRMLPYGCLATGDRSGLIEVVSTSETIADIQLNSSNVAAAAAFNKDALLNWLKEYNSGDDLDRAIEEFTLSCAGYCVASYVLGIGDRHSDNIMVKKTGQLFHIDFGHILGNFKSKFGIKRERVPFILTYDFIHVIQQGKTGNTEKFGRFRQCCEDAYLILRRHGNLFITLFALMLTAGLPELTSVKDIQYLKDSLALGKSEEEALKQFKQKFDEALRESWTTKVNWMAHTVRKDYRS
Chain of PI3K β isoform (P27986 whole entry partner, canonical isoform): as the sequence (P27986 whole entry partner, canonical isoform) above

[14] = biological target: PI3K γ isoform (Homo sapiens, UniProt P48736); experiment: PI3K γ isoform inhibition; conditions: one of the other three isoforms
Chain of PI3K γ isoform (P48736 whole entry, canonical isoform): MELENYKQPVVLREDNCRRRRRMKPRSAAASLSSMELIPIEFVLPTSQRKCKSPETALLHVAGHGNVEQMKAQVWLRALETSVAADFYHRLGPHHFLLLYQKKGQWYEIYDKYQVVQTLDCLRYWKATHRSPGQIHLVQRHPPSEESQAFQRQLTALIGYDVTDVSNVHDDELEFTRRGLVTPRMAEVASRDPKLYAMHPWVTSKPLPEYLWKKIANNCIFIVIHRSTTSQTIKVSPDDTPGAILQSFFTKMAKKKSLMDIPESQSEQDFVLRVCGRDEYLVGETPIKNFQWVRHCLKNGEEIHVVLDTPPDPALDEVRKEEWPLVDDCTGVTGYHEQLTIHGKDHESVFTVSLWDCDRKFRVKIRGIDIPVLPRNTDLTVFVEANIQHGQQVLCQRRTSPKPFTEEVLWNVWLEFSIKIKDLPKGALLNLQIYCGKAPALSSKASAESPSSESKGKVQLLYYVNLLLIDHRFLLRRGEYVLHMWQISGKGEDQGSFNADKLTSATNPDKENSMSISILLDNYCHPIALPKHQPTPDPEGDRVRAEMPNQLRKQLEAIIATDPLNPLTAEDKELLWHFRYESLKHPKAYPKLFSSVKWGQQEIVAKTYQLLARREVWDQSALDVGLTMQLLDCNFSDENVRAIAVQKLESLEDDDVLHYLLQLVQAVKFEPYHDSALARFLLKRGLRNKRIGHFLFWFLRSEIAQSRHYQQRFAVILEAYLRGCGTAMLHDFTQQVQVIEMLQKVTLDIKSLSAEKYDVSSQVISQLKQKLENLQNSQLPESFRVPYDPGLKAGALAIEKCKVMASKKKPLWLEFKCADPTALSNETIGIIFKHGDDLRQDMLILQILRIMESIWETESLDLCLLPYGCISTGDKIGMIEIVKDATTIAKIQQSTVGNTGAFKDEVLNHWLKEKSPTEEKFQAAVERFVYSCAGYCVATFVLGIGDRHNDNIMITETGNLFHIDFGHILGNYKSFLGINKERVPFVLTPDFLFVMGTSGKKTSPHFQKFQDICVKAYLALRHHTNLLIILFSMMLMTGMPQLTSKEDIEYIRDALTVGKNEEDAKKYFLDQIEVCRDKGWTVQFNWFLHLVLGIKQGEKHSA

Chain of FLT3 (P36888 27-993, species assumed): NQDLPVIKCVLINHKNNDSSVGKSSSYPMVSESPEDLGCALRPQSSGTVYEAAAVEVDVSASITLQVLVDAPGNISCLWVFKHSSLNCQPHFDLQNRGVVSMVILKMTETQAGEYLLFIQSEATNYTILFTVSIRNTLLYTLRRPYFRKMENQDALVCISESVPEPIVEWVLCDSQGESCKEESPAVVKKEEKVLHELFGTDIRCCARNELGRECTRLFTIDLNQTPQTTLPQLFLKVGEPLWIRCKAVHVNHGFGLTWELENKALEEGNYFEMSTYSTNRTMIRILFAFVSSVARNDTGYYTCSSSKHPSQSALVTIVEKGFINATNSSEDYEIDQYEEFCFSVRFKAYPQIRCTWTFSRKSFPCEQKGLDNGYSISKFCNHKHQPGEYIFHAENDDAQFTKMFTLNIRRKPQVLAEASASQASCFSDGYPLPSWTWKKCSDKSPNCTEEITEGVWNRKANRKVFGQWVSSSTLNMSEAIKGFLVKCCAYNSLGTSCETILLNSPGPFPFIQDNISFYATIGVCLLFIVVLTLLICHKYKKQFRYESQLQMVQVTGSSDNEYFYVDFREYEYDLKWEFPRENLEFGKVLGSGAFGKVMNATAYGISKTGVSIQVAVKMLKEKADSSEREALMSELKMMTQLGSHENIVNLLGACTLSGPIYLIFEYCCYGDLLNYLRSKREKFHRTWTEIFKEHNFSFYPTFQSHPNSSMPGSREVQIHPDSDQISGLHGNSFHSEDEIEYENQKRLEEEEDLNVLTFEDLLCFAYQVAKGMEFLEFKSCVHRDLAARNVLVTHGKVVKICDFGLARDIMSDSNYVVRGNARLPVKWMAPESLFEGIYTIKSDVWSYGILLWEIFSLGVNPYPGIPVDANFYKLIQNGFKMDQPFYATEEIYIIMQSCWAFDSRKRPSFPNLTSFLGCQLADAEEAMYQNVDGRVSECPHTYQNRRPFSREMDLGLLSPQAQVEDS

c1cnc2ccc(Nc3nc(NC4CC4)c4nc[nH]c4n3)cc2c1 [Compound A]
EC50 [1]: ~0.049 µM
IC50 [2]: 2.3 ± 0.8 µM
IC50 [3]: 4 ± 0.4 µM
IC50 [4]: 3.8 ± 0.6 µM
IC50 [5]: 5.9 ± 0.9 µM
IC50 [6]: 6.1 ± 0.2 µM
IC50 [7]: 3.5 ± 0.1 µM
IC50 [8]: ≤ 1.6 µM
Tumor weight on Day 8 ([9]; 60 mg/kg P.O., D1-4): 0.33 ± 0.13 g
TGI ([9]; 60 mg/kg P.O., D1-4): 82.8* %
Tumor weight on Day 8 ([9]; 80 mg/kg I.V., D1&D4): 1.10 ± 0.21 g
TGI ([9]; 80 mg/kg I.V., D1&D4): 42.7* %
Tumor weight on Day 8 ([9]; 80 mg/kg P.O., D1 &D4): 1.12 ± 0.34 g
TGI ([9]; 80 mg/kg P.O., D1 &D4): 41.7* %
T/C ([10]; D11): 71%
TGI ([10]; D11): 29%
Tumor volume D0 ([10]; in mm³): 150.9
Tumor volume D11 ([10]; in mm³): 2076.3
Cell Death Rate/% 1 ([11]; 48 hours, Table 10): 10.5%
Cell Death Rate/% 2 ([11]; 48 hours, Table 10): 9.87%
Cell Death Rate/% 3 ([11]; 48 hours, Table 10): 10.95%
Cell Death Rate/% mean ([11]; 48 hours, Table 10): 10.44%
Cell Death Rate/% 1 ([11]; Example 10, Table 11): 8.29%
Cell Death Rate/% 2 ([11]; Example 10, Table 11): 8.39%
Cell Death Rate/% 3 ([11]; Example 10, Table 11): 8.64%
Cell Death Rate/% mean ([11]; Example 10, Table 11): 8.44%
EC50, PI3K α isoform [12]: at the μM level
EC50, PI3K β isoform [13]: at the μM level
EC50, PI3K γ isoform [14]: at the μM level
